{
  "source": "patent US10280404B2",
  "about": "“Optimized HCV full-length infectious cell culture systems and applications thereof” (Hvidore Hospital, priority 2014, dated 2019)",
  "key": {"[1]": {"system": "Huh7.5 cells", "assay": "HCV infectivity titers (FFU assay) of culture supernatant after RNA transfection or viral passage", "assay_type": "cell-based, human", "procedure": "Transfection and infection of Huh7.5 cells. The human hepatoma cell line Huh7.5 was maintained as described. Cells were plated in 6-well plates (˜3.5×10^5 cells/well) ˜24 hours before RNA transfection or viral infection, reaching 80-90% confluence at the time of inoculation. RNA transfection and viral infection were performed as previously described. The transfected or infected cultures were incubated for ˜16 hours, and sub-cultured every 2-3 days; culture supernatant was collected, filtered (0.45 μm), and stored at […] until analysis.\nAnalysis of HCV in cultured cells. […] Percentage of HCV antigen positive cells in the culture was determined with fluorescence microscopy. Culture supernatants were collected when 80% of cells were HCV antigen positive (peak infection) and HCV infectivity titers were determined by an FFU assay using a combination of C7-50 and 9E10, as previously described. […] The number of FFU was automatically counted with an ImmunoSpot Series 5 UV Analyzer with customized software (CTL Europe GmbH). HCV RNA titers in the culture supernatant were determined using real time RT-PCR TaqMan method. Core antigen levels were determined by the Architect HCV Ag detection system (Abbott) following manufacturer's instructions. Whole ORF sequences of passaged viruses were determined using procedures previously described for the sequencing of H77C and JFH1 genomes."}, "[2]": {"system": "CD81-deficient S29 cells", "assay": "Single-cycle production assay: intra- and extracellular infectivity titers and core levels", "assay_type": "cell-based, human", "settings": "48 hours after transfection", "procedure": "Determination of intra- and extra-cellular HCV core levels and infectivity titers. For single-cycle production assays, an Huh7-derived CD-81 deficient cell line S29 was transfected with HCV RNA and intracellular HCV core levels were measured 4 and 48 hours post transfection. Additionally, intra- and extra-cellular HCV infectivity titers, as well as extracellular HCV core concentration, were determined 48 hours post transfection, as described previously. Briefly, for this assay, S29 cells were seeded in 6 well plates (˜3.5×10^5 cells/well) 24 hours prior to transfection. Plasmids of the different full-length clones were digested with XbaI (New England Biolabs, NEB) for linearization and treated with Mung Bean nuclease (NEB). HCV RNA was generated by in vitro transcription using T7 RNA polymerase (Promega). […] RNA was quantified using spectrophotometry (NanoDrop) and 10 μg of RNA was used for transfection with Lipofectamine 2000 (Invitrogen). […] Both, intra- and extra-cellular core antigen levels were determined by the Architect HCV Ag detection system (Abbott) following the manufacturer's instructions. […] Specific dilutions were analyzed in triplicate for HCV infectivity titers, and the FFU was counted using an ImmunoSpot Series 5 UV Analyzer with customized software (CTL Europe GmbH), and confirmed by manual count. […]"}},
  "note": "Entries after “also recorded” stand apart in the source; their conditions may differ.",
  "data": [
    {"substance": "HCV1_LSGF/S399F/TNm/4m: full-length HCV-1 recombinant with LSGF/S399F/TNm plus A970T/I1312V/C2419R/A2919T", "values": [
      {"measurement": "day at which HCV infectivity titers were first detectable", "setting": "[1]; after transfection of Huh7.5 cells, detection limit 10^2.4 FFU/ml", "result": 4, "unit": "days"},
      {"measurement": "infectivity titers compared with HCV1cc", "setting": "[1]; transfected Huh7.5 cells", "result": "slightly lower than those of HCV1cc; also recorded: close to those of HCV1cc"},
      {"measurement": "extracellular infectivity titers", "setting": "[2]", "result": "comparable to those of HCV1cc"}
    ]}
  ]
}
